For orientation: IC50 means the midpoint of a concentration-inhibition curve. Read a high IC50 as weaker potency in that assay.

In this experiment the target is Branched-chain-amino-acid aminotransferase, mitochondrial (Homo sapiens, UniProt O15382).
Branched-chain-amino-acid aminotransferase, mitochondrial, sequence (O15382 whole entry): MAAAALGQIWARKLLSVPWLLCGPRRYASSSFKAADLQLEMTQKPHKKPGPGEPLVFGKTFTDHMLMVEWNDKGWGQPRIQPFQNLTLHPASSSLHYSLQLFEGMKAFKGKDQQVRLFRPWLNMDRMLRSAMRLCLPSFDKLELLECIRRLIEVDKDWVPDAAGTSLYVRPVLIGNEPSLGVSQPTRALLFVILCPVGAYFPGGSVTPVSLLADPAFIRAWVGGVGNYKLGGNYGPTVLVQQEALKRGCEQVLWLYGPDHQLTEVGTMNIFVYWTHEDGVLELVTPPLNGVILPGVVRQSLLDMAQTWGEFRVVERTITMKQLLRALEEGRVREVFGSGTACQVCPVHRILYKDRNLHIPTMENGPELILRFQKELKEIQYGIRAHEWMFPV

As to `Cc1ccccc1Oc1cc(-n2c(=O)cc(C(F)(F)F)[nH]c2=O)c2ccccc2c1` [BAY-771], the IC50 is 10.8 µM (not active).

The values above are taken from ChEMBL document CHEMBL4507325 (2021).
